Tests used:
healthy cells = assay: Immunohistochemistry: deformed nuclei / toxicity on healthy reference cells; assay type: cell-based, human; conditions: Pravastatin 100 μM for 12 hours, zoledronate 20 μM for 6 hours; in combination or alone (FIG. 3)
Experimental: (§1) The cell lines are either reference fibroblasts AG16409 from the Coriell Institute, or fibroblasts from biopsies of patients suffering from Restrictive Dermopathy. They are cultivated at 37° C. in 5% CO2 in a P2 room.
(§2) A cell culture is trypsinised and the cells counted on a Neubauer cell.
(§3) Labtech-style culture wells (Nunc, ref 177399) are seeded, at the rate of 5×10^4 cells per well.
(§4) The complete culture medium is supplemented by the treatment or treatments (statin, NBP, or both), and the cells cultivated for an ad hoc time.
(§5) The cells are fixed in a paraformaldehyde 4% solution (in PBS) for 10 minutes at room temperature.
(§6) The primary antibody is diluted to 1/100th in 50 μl of incubation solution and put in contact with the cells for 1 hour at room temperature in a humid chamber.
Incubation with the secondary antibody takes place for 1 hour in 50 ml of incubation solution at room temperature in a humid chamber. The secondary antibodies are of two types: • Anti-mouse donkey, Jackson Immunoresearch, dilution to 1/100th • Anti-goat donkey, Jackson Immunoresearch, dilution to 1/200th […]
(§7) The cells are immersed in a drop of VectaShield (Vector), covered with an object-covering blade and observed on a fluorescence microscope (Leica DMR, Leica Microsystems), equipped with a coolSNAP (Princeton) camera system.

prelamin A = assay: Immunohistochemistry (immunomarking): level of prelamin A in healthy reference cells; assay type: cell-based, human; conditions: Pravastatin 100 μM for 12 hours, zoledronate 20 μM for 6 hours; in combination or alone (FIG. 3)
Experimental: as §1, §2, §3, §4, §5
After defrosting, the cells are incubated for 5 minutes at room temperature in a humid chamber in 50 μl of a permeabilisation solution:
as §6
Incubation with the secondary antibody takes place for 1 hour in 50 ml of incubation solution at room temperature in a humid chamber. […]
as §7

| Compound | level of deformed nuclei (the sign of toxicity on the healthy cells) (healthy cells) | level of prelamin A produced in treated healthy cells (prelamin A) [%] |
| --- | --- | --- |
| CC[C@H](C)C(=O)O[C@H]1C[C@H](O)C=C2C=C[C@H](C)[C@H](CC[C@@H](O)C[C@@H](O)CC(=O)O)[C@H]21 [pravastatin] | approximately 12% | 25 |
| (1-hydroxy-2-imidazol-1-yl-phosphono-ethyl)phosphonic acid [zoledronate] |  | 15 |

Reference: patent publication US9072757B2, “Combination of an HMG-CoA reductase inhibitor and a farnesyl-pyrophosphate synthase inhibitor for the treatment of diseases related to the persistence and/or accumulation of prenylated proteins” (UNIVERSITE DE LA MEDITERRANEE AIX-MARSEILLE II, priority 2006, dated 2015)
